According to article PMC7180572, “5-Alkylamino-N-phenylpyrazine-2-carboxamides: Design, Preparation, and Antimycobacterial Evaluation” (Molecules, 2020):
Values after ≈ are worked out from the molar mass of the structure shown. Values joined by “and” are separate entries in the source; they are usually repeats but may differ in a detail not shown here. Equal values may be shown once. Read-outs that look alike come from different tables or passages of the source.

Tests used:
[1] = test system: Aspergillus flavus CCM 8363; test: Antifungal microdilution broth method (EUCAST); type: cell-based; conditions: read-out: MIC AFla
[2] = test system: Staphylococcus epidermidis ATCC 12228, CCM 4418; test: Antibacterial microdilution broth method (EUCAST); type: cell-based; conditions: read-out: MIC SE
[3] = test system: Escherichia coli ATCC 25922, CCM 3954; test: Antibacterial microdilution broth method (EUCAST); type: cell-based; conditions: read-out: MIC EC
[4] = test system: Candida krusei ATCC 6258, CCM 8271; test: Antifungal microdilution broth method (EUCAST); type: cell-based; conditions: Pichia kudriavzevii, read-out: MIC CK
[5] = test system: Klebsiella pneumoniae ATCC 10031, CCM 4415; test: Antibacterial microdilution broth method (EUCAST)
HepG2 cells = test: HepG2 cytotoxicity, CellTiter 96 (MTS) assay; type: cell-based, human; conditions: for IC50: Homo sapiens, HepG2, 24 h, read-out: HepG2 IC50
[6] = test system: Mycobacterium smegmatis DSM 43465 (ATCC 607); test: Microdilution broth, modified Microplate Alamar Blue Assay, whole cell growth inhibition; type: cell-based; conditions: Mycolicibacterium smegmatis, read-out: MIC Mycobacterium smegmatis
[7] = test system: Candida parapsilosis ATCC 22019, CCM 8260; test: Antifungal microdilution broth method (EUCAST); type: cell-based; conditions: Lodderomyces parapsilosis, read-out: MIC CP
[8] = test system: Staphylococcus aureus methicillin resistant ATCC 43300, CCM 4750; test: microbe, parasite or virus in culture; type: cell-based; conditions: ATCC 43300 / CCM 4750 / MRSA, read-out: MIC MRSA
[9] = test system: Aspergillus fumigatus ATCC 204305; test: Antifungal microdilution broth method (EUCAST); type: cell-based; conditions: read-out: MIC AF
[10] = test system: Candida tropicalis ATCC 750, CCM 8264; test: Antifungal microdilution broth method (EUCAST); type: cell-based; conditions: read-out: MIC CT
[11] = test system: Mycobacterium aurum DSM 43999 (ATCC 23366); test: Microdilution broth, modified Microplate Alamar Blue Assay, whole cell growth inhibition; type: cell-based; conditions: Mycolicibacterium aurum, read-out: MIC Mycobacterium aurum
[12] = test system: Absidia corymbifera CCM 8077 (Lichtheimia corymbifera); test: Antifungal microdilution broth method (EUCAST); type: cell-based; conditions: read-out: MIC AC
[13] = test system: Enterococcus faecalis ATCC 29212, CCM 4224; test: Antibacterial microdilution broth method (EUCAST); type: cell-based; conditions: read-out: MIC EF
[14] = test system: Trichophyton interdigitale ATCC 9533, CCM 8377; test: Antifungal microdilution broth method (EUCAST); type: cell-based; conditions: read-out: MIC TI
[15] = test system: Mycobacterium tuberculosis H37Ra ITM-M006710 (ATCC 9431); test: Microdilution broth, modified Microplate Alamar Blue Assay, whole cell growth inhibition; type: cell-based; conditions: Mycobacterium tuberculosis, read-out: MIC Mtb H37Ra
[16] = test system: Candida albicans ATCC 24433, CCM 8320; test: Antifungal microdilution broth method (EUCAST); type: cell-based; conditions: read-out: MIC CA
[17] = test system: Pseudomonas aeruginosa ATCC 27853, CCM 3955; test: Antibacterial microdilution broth method (EUCAST); type: cell-based; conditions: read-out: MIC PA
[18] = test system: Staphylococcus aureus spp.aureus ATCC 29213, CCM 4223; test: Antibacterial microdilution broth method (EUCAST); type: cell-based; conditions: read-out: MIC SA
[19] = test system: Acinetobacter baumanii ATCC 19606, DSM 30007; test: Antibacterial microdilution broth method (EUCAST); type: cell-based; conditions: Acinetobacter baumannii
[20] = in vitro, Middlebrook 7H9 broth, resazurin

Structure (SMILES): CCCCCCCCNc1cnc(C(=O)Nc2ccc(C)cc2)cn1 [Compound 4f, 5-(octylamino)-N-(p-tolyl)pyrazine-2-carboxamide]
- MIC ([1]; CCM8363, 24 h): > 125 µM
- MIC ([1]; CCM8363, 48 h): > 125 µM
- MIC ([2]; 24 h): > 125 µM
- MIC ([2]; 48 h): > 125 µM
- MIC ([3]; 24 h): > 125 µM
- MIC ([3]; 48 h): > 125 µM
- MIC ([4]; 24 h): > 125 µM
- MIC ([4]; 48 h): > 125 µM
- MIC KP ([5]; 24h): > 125 µM
- MIC KP ([5]; 48h): > 125 µM
- IC50 (HepG2 cells): > 25 µM
- MIC [6]: ≥ 250 µg/mL
- MIC ([7]; 24 h): > 125 µM
- MIC ([7]; 48 h): > 125 µM
- melting point: 155 to 156 °C
- MIC ([8]; 24 h): > 125 µM
- MIC ([8]; 48 h): > 125 µM
- MIC ([9]; ATCC204305, 24 h): > 125 µM
- MIC ([9]; ATCC204305, 48 h): > 125 µM
- MIC ([10]; 24 h): > 125 µM
- MIC ([10]; 48 h): > 125 µM
- MIC [11]: ≥ 250 µg/mL
- MIC ([12]; CCM8077, 24 h): > 125 µM
- MIC ([12]; CCM8077, 48 h): > 125 µM
- MIC ([13]; 24 h): > 125 µM
- MIC ([13]; 48 h): > 125 µM
- MIC ([14]; 72 h): > 125 µM
- MIC ([14]; 120 h): > 125 µM
- MIC [15, 20]: ≥ 250 µg/mL
- MIC ([16]; 24 h): > 125 µM
- MIC ([16]; 48 h): > 125 µM
- MIC ([17]; 72 h): > 125 µM
- MIC ([17]; 120 h): > 125 µM
- MIC ([18]; 24 h): > 125 µM
- MIC ([18]; 48 h): > 125 µM
- MIC ([19]; 24h): > 125 µM
- MIC ([19]; 48h): > 125 µM

Structure (SMILES): CCCNc1cnc(C(=O)Nc2ccc(CC)cc2)cn1 [Compound 5a, N-(4-ethylphenyl)-5-(propylamino)pyrazine-2-carboxamide]
- MIC ([1]; CCM8363, 24 h): > 125 µM
- MIC ([1]; CCM8363, 48 h): > 125 µM
- MIC ([2]; 24 h): > 125 µM
- MIC ([2]; 48 h): > 125 µM
- MIC ([3]; 24 h): > 125 µM
- MIC ([3]; 48 h): > 125 µM
- MIC ([4]; 24 h): > 125 µM
- MIC ([4]; 48 h): > 125 µM
- MIC KP ([5]; 24h): > 125 µM
- MIC KP ([5]; 48h): > 125 µM
- IC50 (HepG2 cells): 495 µM
- SI, selectivity index (HepG2 cells; IC50 (HepG2)/MIC against Mtb H37Ra (in µM)): 18 and 18.01
- MIC [6]: 7.81 µg/mL (≈ 27.5 µM)
- MIC ([7]; 24 h): > 125 µM
- MIC ([7]; 48 h): > 125 µM
- melting point: 141.8 to 142.8 °C
- MIC ([8]; 24 h): > 125 µM
- MIC ([8]; 48 h): > 125 µM
- MIC ([9]; ATCC204305, 24 h): > 125 µM
- MIC ([9]; ATCC204305, 48 h): > 125 µM
- MIC ([10]; 24 h): > 125 µM
- MIC ([10]; 48 h): > 125 µM
- MIC [11]: ≥ 500 µg/mL
- MIC ([12]; CCM8077, 24 h): > 125 µM
- MIC ([12]; CCM8077, 48 h): > 125 µM
- MIC ([13]; 24 h): > 125 µM
- MIC ([13]; 48 h): > 125 µM
- MIC ([14]; 72 h): > 125 µM
- MIC ([14]; 120 h): > 125 µM
- MIC ([15]; MIC converted to µM): 27.5 µM
- MIC [15, 20]: 7.81 µg/mL
- MIC ([16]; 24 h): > 125 µM
- MIC ([16]; 48 h): > 125 µM
- MIC ([17]; 72 h): > 125 µM
- MIC ([17]; 120 h): > 125 µM
- MIC ([18]; 24 h): > 125 µM
- MIC ([18]; 48 h): > 125 µM
- MIC ([19]; 24h): > 125 µM
- MIC ([19]; 48h): > 125 µM

Structure (SMILES): CCCCCCNc1cnc(C(=O)Nc2ccc(CC)cc2)cn1 [Compound 5d, N-(4-ethylphenyl)-5-(hexylamino)pyrazine-2-carboxamide]
- MIC ([1]; CCM8363, 24 h): > 125 µM
- MIC ([1]; CCM8363, 48 h): > 125 µM
- MIC ([2]; 24 h): > 500 µM
- MIC ([2]; 48 h): > 500 µM
- MIC ([3]; 24 h): > 500 µM
- MIC ([3]; 48 h): > 500 µM
- MIC ([4]; 24 h): > 125 µM
- MIC ([4]; 48 h): > 125 µM
- MIC KP ([5]; 24h): > 500 µM
- MIC KP ([5]; 48h): > 500 µM
- IC50 (HepG2 cells): > 25 µM
- MIC [6]: ≥ 500 µg/mL
- MIC ([7]; 24 h): > 125 µM
- MIC ([7]; 48 h): > 125 µM
- melting point: 138 to 139 °C
- MIC ([8]; 24 h): > 500 µM
- MIC ([8]; 48 h): > 500 µM
- MIC ([9]; ATCC204305, 24 h): > 125 µM
- MIC ([9]; ATCC204305, 48 h): > 125 µM
- MIC ([10]; 24 h): > 125 µM
- MIC ([10]; 48 h): > 125 µM
- MIC [11]: ≥ 500 µg/mL
- MIC ([12]; CCM8077, 24 h): > 125 µM
- MIC ([12]; CCM8077, 48 h): > 125 µM
- MIC ([13]; 24 h): > 500 µM
- MIC ([13]; 48 h): > 500 µM
- MIC ([14]; 72 h): > 125 µM
- MIC ([14]; 120 h): > 125 µM
- MIC [15, 20]: ≥ 500 µg/mL
- MIC ([16]; 24 h): > 125 µM
- MIC ([16]; 48 h): > 125 µM
- MIC ([17]; 72 h): > 500 µM
- MIC ([17]; 120 h): > 500 µM
- MIC ([18]; 24 h): > 500 µM
- MIC ([18]; 48 h): > 500 µM
- MIC ([19]; 24h): > 500 µM
- MIC ([19]; 48h): > 500 µM

Structure (SMILES): CCCCCCCNc1cnc(C(=O)Nc2ccc(CC)cc2)cn1 [Compound 5e, N-(4-ethylphenyl)-5-(heptylamino)pyrazine-2-carboxamide]
- MIC ([1]; CCM8363, 24 h): > 125 µM
- MIC ([1]; CCM8363, 48 h): > 125 µM
- MIC ([2]; 24 h): > 500 µM
- MIC ([2]; 48 h): > 500 µM
- MIC ([3]; 24 h): > 500 µM
- MIC ([3]; 48 h): > 500 µM
- MIC ([4]; 24 h): > 125 µM
- MIC ([4]; 48 h): > 125 µM
- MIC KP ([5]; 24h): > 500 µM
- MIC KP ([5]; 48h): > 500 µM
- IC50 (HepG2 cells): > 25 µM
- MIC [6]: ≥ 500 µg/mL
- MIC ([7]; 24 h): > 125 µM
- MIC ([7]; 48 h): > 125 µM
- melting point: 131 to 132 °C
- MIC ([8]; 24 h): > 500 µM
- MIC ([8]; 48 h): > 500 µM
- MIC ([9]; ATCC204305, 24 h): > 125 µM
- MIC ([9]; ATCC204305, 48 h): > 125 µM
- MIC ([10]; 24 h): > 125 µM
- MIC ([10]; 48 h): > 125 µM
- MIC [11]: ≥ 500 µg/mL
- MIC ([12]; CCM8077, 24 h): > 125 µM
- MIC ([12]; CCM8077, 48 h): > 125 µM
- MIC ([13]; 24 h): > 500 µM
- MIC ([13]; 48 h): > 500 µM
- MIC ([14]; 72 h): > 125 µM
- MIC ([14]; 120 h): > 125 µM
- MIC [15, 20]: ≥ 500 µg/mL
- MIC ([16]; 24 h): > 125 µM
- MIC ([16]; 48 h): > 125 µM
- MIC ([17]; 72 h): > 500 µM
- MIC ([17]; 120 h): > 500 µM
- MIC ([18]; 24 h): > 500 µM
- MIC ([18]; 48 h): > 500 µM
- MIC ([19]; 24h): > 500 µM
- MIC ([19]; 48h): > 500 µM
